The values that follow come from patent US6506766B1 (Abbott Laboratories, priority 1998, dated 2003).

Broadly, the Ki is a dissociation constant, usually derived from enzyme kinetics or from competition with a known ligand.

The target of assay [1] is T1, human glucocorticoid receptor-α [GRX] isoform (Homo sapiens, UniProt P04150).
T1 construct: host or cells: insect SF21 cells (baculovirus)
T1 sequence (P04150 1-777): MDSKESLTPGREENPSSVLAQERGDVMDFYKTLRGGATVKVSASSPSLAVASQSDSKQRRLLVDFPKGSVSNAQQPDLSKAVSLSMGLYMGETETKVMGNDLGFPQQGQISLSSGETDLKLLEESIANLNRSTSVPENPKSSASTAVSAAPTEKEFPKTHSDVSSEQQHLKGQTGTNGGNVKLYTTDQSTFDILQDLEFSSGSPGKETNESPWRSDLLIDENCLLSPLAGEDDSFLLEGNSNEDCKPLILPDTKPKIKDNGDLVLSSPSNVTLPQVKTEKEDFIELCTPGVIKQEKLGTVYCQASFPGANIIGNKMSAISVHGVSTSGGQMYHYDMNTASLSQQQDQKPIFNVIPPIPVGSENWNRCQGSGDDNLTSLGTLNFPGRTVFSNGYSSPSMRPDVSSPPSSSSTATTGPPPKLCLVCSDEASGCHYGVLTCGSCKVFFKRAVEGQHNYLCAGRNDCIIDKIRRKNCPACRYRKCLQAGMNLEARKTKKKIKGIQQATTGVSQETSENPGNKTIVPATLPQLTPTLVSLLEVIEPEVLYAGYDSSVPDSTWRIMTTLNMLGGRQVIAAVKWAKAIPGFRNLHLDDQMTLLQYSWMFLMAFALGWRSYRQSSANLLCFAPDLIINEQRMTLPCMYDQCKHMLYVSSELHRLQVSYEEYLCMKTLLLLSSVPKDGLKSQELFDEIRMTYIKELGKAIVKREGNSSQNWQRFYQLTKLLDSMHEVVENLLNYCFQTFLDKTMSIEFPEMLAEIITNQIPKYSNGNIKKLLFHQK
In words: Radioligand binding with human glucocorticoid receptor cytosol ([3H]-dexamethasone competition). The note with it: read-out: Ki (nM) GR.
Text: Briefly, cytosol preparations of human glucocorticoid receptor-α [GRX] isoform and human progesterone receptor-A [PRA] isoform were obtained from Ligand Pharmaceuticals (San Diego, Calif.). Both receptor cDNAs were cloned into baculovirus expression vectors and expressed in insect SF21 cells. [^3H]-dexamethasone (Dex, specific activity 82-86 Ci/mmole) and [^3H]-progesterone (Prog, specific activity 97-102 Ci/mmol) were purchased from Amersham Life Sciences (Arlington Heights, Ill.). Glass fiber type C multiscreen MAFC NOB plates were from Millipore (Burlington, Mass.). Hydroxyapatide Bio-Gel HTP gel was from Bio-Rad Laboratories (Hercules, Calif.). Tris(hydroxymethyl)aminomethane (Tris), ethylenediaminetetraacetic acid (EDTA), glycerol, dithiothreitol (DTT) and sodium moylybdate were obtained from Sigma Chemicals (St. Louis, Mo.). Microscint-20 scintillation fluid was from Packard Instrument (Meriden, Conn.).
Stock solutions (32 mM) of compounds were prepared in dimethylsulfoxide (DMSO), and 50× solutions of test compounds were prepared from the 32 mM solution with a 50:50 mixture of DMSO/ethanol. The 50× solution was then diluted with binding buffer that contained 10 mM Tri-HCl, 1.5 mM EDTA, 10% glycerol, 1 mM DTT, 20 mM sodium molybdate, pH 7.5 @4° C. 1% DMSO/ethanol was present in the binding assay.
For GR binding assays, [^3H]-Dex (˜35,000 dpm (˜0.9 nM)), GRX cytosol (˜35 μg protein), test compounds and binding buffer were mixed in a total volume of 200 μL and incubated at 4° C. overnight in a plate shaker. Specific binding was defined as the difference between binding of [^3H]Dex in the absence and in the presence of 1 μM unlabelled Dex.
After an overnight incubation, 50 μL of hydroxyapatite (25% weight/volume) slurry were added to each well and plates were incubated for 10 min at 0° C. in a plate shaker. Plates were suctioned with a Millipore vacuum manifold and each well was rinsed with 300 μL of ice-cold binding buffer. A 250 μL aliquot of Packard Microscint-20 was added to each well and the wells were shaken at room temperature for 20 minutes. The amount of radioactivity was determined with a Packard TopCount plate reader.
The Ki of test compounds was determined using the Cheng-Prusoff equation Ki=IC50/(1+[L*]/[KL]) where L* is the concentration of radioligand and KL is the dissociation constant of the radioligand determined from saturation analysis.

In assay [2] the target is T2, human progesterone receptor-A [PRA] isoform (Homo sapiens, UniProt P06401).
T2 construct: host or cells: insect SF21 cells (baculovirus)
T2 sequence (P06401 1-769 isoform P06401-2): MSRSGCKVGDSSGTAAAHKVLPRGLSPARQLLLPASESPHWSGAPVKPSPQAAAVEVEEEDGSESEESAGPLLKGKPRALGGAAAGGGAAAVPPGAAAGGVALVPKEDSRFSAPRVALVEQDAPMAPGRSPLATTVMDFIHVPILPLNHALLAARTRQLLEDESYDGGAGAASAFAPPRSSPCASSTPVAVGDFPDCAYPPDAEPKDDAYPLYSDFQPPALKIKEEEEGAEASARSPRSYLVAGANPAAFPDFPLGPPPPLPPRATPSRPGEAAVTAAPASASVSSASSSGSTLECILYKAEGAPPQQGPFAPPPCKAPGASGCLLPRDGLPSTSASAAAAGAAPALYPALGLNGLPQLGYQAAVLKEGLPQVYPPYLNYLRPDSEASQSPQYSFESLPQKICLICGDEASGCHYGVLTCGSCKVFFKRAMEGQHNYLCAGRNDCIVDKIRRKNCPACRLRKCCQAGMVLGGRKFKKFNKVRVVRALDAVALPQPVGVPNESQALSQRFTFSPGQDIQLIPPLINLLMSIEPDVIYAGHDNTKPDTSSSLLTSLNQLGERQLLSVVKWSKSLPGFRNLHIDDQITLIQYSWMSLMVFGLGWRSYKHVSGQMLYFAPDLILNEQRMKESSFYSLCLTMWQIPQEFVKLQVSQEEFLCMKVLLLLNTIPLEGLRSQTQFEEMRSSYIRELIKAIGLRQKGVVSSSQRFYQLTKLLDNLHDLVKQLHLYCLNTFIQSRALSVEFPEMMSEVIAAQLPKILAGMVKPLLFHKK
As to the kind of experiment: Radioligand binding with human progesterone receptor cytosol ([3H]-progesterone competition). The note with it: read-out: Ki (nM) PR.

Setting [3] is: GRX cytosol expressed in insect SF21 cells, [3H]-Dex ~0.9 nM, 4° C. overnight, Ki by Cheng-Prusoff, KL ~[…].
Setting [4] is: PRA cytosol expressed in insect SF21 cells, [3H]Prog ~0.8 nM, 4° C. overnight, Ki by Cheng-Prusoff, KL ~4.5 nM.

Like-named read-outs stand apart in the source and are kept apart here. A value given as a limit tells only on which side of the number the result lay.

On to `COc1cccc2c1-c1ccc3c(c1C(CC(=O)C(C)(C)C)O2)C(C)=CC(C)(C)N3` (stereo not drawn) [Example 43, 1-(2,5-Dihydro-10-methoxy-2,2,4-trimethyl-1H-[1]benzopyrano[3,4-f]quinolin-5yl)-3,3-dimethyl-2-butanone], for which the Ki was 72 nM in assay [1] (setting [3]) and ≥ 10000 nM in assay [2] (setting [4]).
Regarding `COc1cccc2c1-c1ccc3c(c1C(c1cccc(OS(=O)(=O)c4ccc(C)cc4)c1)O2)C(C)=CC(C)(C)N3` (stereo not drawn) [Example 93, 3-(2,5-Dihydro-10-methoxy-2,2,4-trimethyl-1H-[1]benzopyrano[3,4-f]quinolin-5-yl)phenol 4-Methylbenzenesulfonate (Ester)], the inhibitory constant (Ki) was 148 nM in assay [1] (setting [3]) and ≥ 10000 nM in assay [2] (setting [4]).
On the same counts, the results for `COC(=O)C1=CC(C2Oc3ccc(O)c(OC)c3-c3ccc4c(c32)C(C)=CC(C)(C)N4)CCC1` (single isomer, unassigned) [Example 288] are 0.86 nM and 4080 nM.
On the same counts, the results for `C#Cc1cccc2c1-c1ccc3c(c1C(c1ccccc1)O2)C(C)=CC(C)(C)N3` (stereo not drawn) [Example 334, 2,5-Dihydro-10-ethynyl-5-phenyl-2,2,4-trimethyl-1H-[1]benzopyrano[3,4-f]quinoline] are 9.5 nM and ≥ 10000 nM.
On the same counts, the results for `CCC(C)=C1Oc2cccc(OC)c2-c2ccc3c(c21)C(C)=CC(C)(C)N3` [Example 355, 10-Methoxy-5-(1-methylpropylidene)-2,5-dihydro-5-phenyl-2,2,4-trimethyl-1H-[1]benzopyrano[3,4-f]quinoline] are 27 nM and 4280 nM.
For the compound `COc1cccc2c1-c1ccc3c(c1C(c1ccncc1)O2)C(C)=CC(C)(C)N3` (stereo not drawn) [Example 215, 2,5-Dihydro-10-methoxy-5-(4-pyridyl)-2,2,4-trimethyl-1H-[1]benzopyrano[3,4-f]quinoline], the Ki is 20 nM in assay [1] (setting [3]) and ≥ 10000 nM in assay [2] (setting [4]).
With “2,5-Dihydro-10-methoxy-5-(3,3-dimethyl-6-cyclohexenyl)-2,2,4-trimethyl-1H-[1]benzopyrano[3,4-f]quinoline [Example 146]”, the results for the inhibition constant Ki in assay [1] and in assay [2] were 8.3 nM and 8300 nM, respectively.
In the case of `COc1cccc2c1-c1ccc3c(c1[C@H](C1(C)CC=CCC1)O2)C(C)=CC(C)(C)N3` (stereo in doubt) [Example 152, rel (5S,3′S) 2,5-Dihydro-10-methoxy-5-(1-methyl-3-cyclohexenyl)-2,2,4-trimethyl-1H[1]benzopyrano[3,4-f]quinoline], the results for the Ki in assay [1] (setting [3]) and in assay [2] (setting [4]) were 1.8 nM and ≥ 10000 nM, respectively.
Consider `COc1c(O)ccc2c1-c1ccc3c(c1[C@@H]([C@@H]1C=C(C)CCC1)O2)C(C)=CC(C)(C)N3` [Example 240, (+)(5R,3′S)-9-Hydroxy-5-[1-methyl-3-cyclohexenyl]-10-methoxy-2,2,4-trimethyl-2,5-dihydro-1H-[1]benzopyrano[3,4-f]quinoline], for which the Ki in assay [1] (setting [3]) is 52.2 nM; in assay [2] (setting [4]) it was 2170 nM.
As to `CC1=CC(C)(C)Nc2ccc3c(c21)C(c1cc(C)cc(C)c1)Oc1ccc(O)c(Cl)c1-3` (stereo not drawn) [Example 219, 10-Chloro-9-hydroxy-5-(3,5-dimethylphenyl)-2,2,4-trimethyl-1H-2,5-dihydro-[1]benzopyrano[3,4-f]quinoline], the Ki in assay [1] (setting [3]) came to 2.4 nM; in assay [2] (setting [4]) it was 178 nM.
Take `CCc1cccc2c1-c1ccc3c(c1C(c1cc(Cl)cc(Cl)c1)O2)C(C)=CC(C)(C)N3` (stereo not drawn) [Example 72, 5-(3,5-Dichlorophenyl)-10-ethyl-2,5-dihydro-2,2,4-trimethyl-1H-[1]benzopyrano[3,4-f]quinoline]: the Ki was 17.8 nM in assay [1] (setting [3]) and 1450 nM in assay [2] (setting [4]).
The like results for `COc1cccc2c1-c1ccc3c(c1C(c1cccc(SC)c1)O2)C(C)=CC(C)(C)N3` (stereo not drawn) [Example 103] were, in that order, 5.2 nM and ≥ 10000 nM.
The like results for `C=C(CO)CC1Oc2ccc(O)c(OC)c2-c2ccc3c(c21)C(C)=CC(C)(C)N3` (stereo not drawn) [Example 280, 2,5-Dihydro-9-hydroxy-10-methoxy-2,2,4-trimethyl-5-(2-hydroxymethyl-3-propenyl)-1H-[1]benzopyrano[3,4-f]quinoline] were, in that order, 1.6 nM and ≥ 10000 nM.
On the same counts, the results for `CCCCCCOc1cccc(C2Oc3cccc(OC)c3-c3ccc4c(c32)C(C)=CC(C)(C)N4)c1` (stereo not drawn) [Example 90, 5-(3-Hexyloxyphenyl)-2,5-dihydro-10-methoxy-2,2,4-trimethyl-1H-[1]benzopyrano[3,4-f]quinoline] are 7.6 nM and ≥ 10000 nM.
`COc1c(O)ccc2c1-c1ccc3c(c1C(=Cc1cccc(F)c1)O2)C(C)=CC(C)(C)N3` [Example 412, 9-Hydroxy-10-methoxy-5-([3-fluorophenyl]methylene)-2,2,4-trimethyl-1H-2,5-dihydro-[1]benzopyrano[3,4-f]quinoline]: the results for the Ki in assay [1] (setting [3]) and in assay [2] (setting [4]) were 9 nM and 222 nM, respectively.
For `COc1cccc2c1-c1ccc3c(c1C(C/C=C/CO)O2)C(C)=CC(C)(C)N3` (stereo not drawn) [Example 195, (E) 2,5-Dihydro-10-methoxy-5-(4-hydroxy-2-buten-1-yl)-2,2,4-trimethyl-1H-[1]benzopyrano[3,4-f]quinoline], the Ki in assay [1] (setting [3]) was 25 nM; in assay [2] (setting [4]), ≥ 10000 nM.
The like results for `C=CCC1Oc2c(Br)cc(Br)c(OC)c2-c2ccc3c(c21)C(C)=CC(C)(C)N3` (stereo not drawn) [Example 301, 7,9-Dibromo-10-methoxy-5-(3-propenyl)-2,2,4-trimethyl-1H-2,5-dihydro[1]benzopyrano[3,4-f]quinoline] were, in that order, 16 nM and 113 nM.
With `C=CCC1Oc2ccc(OC(=O)CCC(=O)N(CC)CC)c(OC)c2-c2ccc3c(c21)C(C)=CC(C)(C)N3` (stereo not drawn) [Example 378, 2,5-Dihydro-9-(4-N,N-diethylamino-4-oxo-butanoyloxy)-10-methoxy-2,2,4-trimethyl-5-(2-propenyl)-1H-[1]benzopyrano[3,4-f]quinoline], the Ki in assay [1] (setting [3]) was determined as 1.1 nM; in assay [2] (setting [4]), 440 nM.
On the same counts, the results for `CC1=CC(C)(C)Nc2ccc3c(c21)C(c1cccc(C(F)(F)F)c1)Oc1ccc(O)c(Cl)c1-3` (stereo not drawn) [Example 218, 10-Chloro-9-hydroxy-5-(3-trifluoromethylphenyl)-2,2,4-trimethyl-1H-2,5-dihydro-[1]benzopyrano[3,4-f]quinoline] are 1.6 nM and 227 nM.
With `C=CCC1Oc2ccc(OC(=O)CCCC(=O)N3CCOCC3)c(OC)c2-c2ccc3c(c21)C(C)=CC(C)(C)N3` (stereo not drawn) [Example 440], the Ki in assay [1] (setting [3]) stood at 0.7 nM; in assay [2] (setting [4]) it was 390 nM.
Turning to `CC1=CC(C)(C)Nc2ccc3c(c21)[C@@H]([C@H]1C=CCC1)Oc1ccc(O)c(Cl)c1-3` [Example 225], the Ki was found to be 155 nM in assay [1] (setting [3]) and 5010 nM in assay [2] (setting [4]).
The like results for `COc1cccc2c1-c1ccc3c(c1C(c1cccs1)O2)C(C)=CC(C)(C)N3` (stereo not drawn) [Example 129, 2,5-Dihydro-10-methoxy-2,2,4-trimethyl-5-(2-thienyl)-1H-[1]benzopyrano[3,4-f]quinoline] were, in that order, 5.5 nM and 3620 nM.
Turning to `COCC1=CC(C2Oc3cccc(OC)c3-c3ccc4c(c32)C(C)=CC(C)(C)N4)CCC1` (stereo not drawn) [Example 160], the Ki in assay [1] (setting [3]) is 1.8 nM; in assay [2] (setting [4]) it was ≥ 10000 nM.
In the case of `COc1cccc2c1-c1ccc3c(c1C(c1cccc(OS(=O)(=O)C(F)(F)F)c1)O2)C(C)=CC(C)(C)N3` (stereo not drawn) [Example 105], the Ki is 9 nM in assay [1] (setting [3]) and > 10000 nM in assay [2] (setting [4]).
